One may read the IC50 as the point on the concentration scale where inhibition reaches its midpoint.

Results on 15 molecules are retold here after patent US20250136578A1 (Kolm Therapeutics Inc., priority 2023, published 2025).

The target in one assay is AR / CBP ternary complex (Homo sapiens, UniProt P10275+Q92793). The experiment in a line: Ternary complex formation assay (sandwich ELISA, AR capture, CBP antibody detection) in VCaP cell lysates. The class given is cell-based. An outline of the steps: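 Sandwich ELISA: plates were coated with anti-AR antibody (AR441) and given lysates of VCaP cells treated 1.5 h with bifunctional compound in charcoal-stripped serum. Co-captured CBP or p300 was probed with rabbit mAbs and HRP secondary. Chemifluorescent signal (ex 570/em 585) was read at 0, 5 and 15 min.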
AR / CBP ternary complex, sequence (P10275 whole entry): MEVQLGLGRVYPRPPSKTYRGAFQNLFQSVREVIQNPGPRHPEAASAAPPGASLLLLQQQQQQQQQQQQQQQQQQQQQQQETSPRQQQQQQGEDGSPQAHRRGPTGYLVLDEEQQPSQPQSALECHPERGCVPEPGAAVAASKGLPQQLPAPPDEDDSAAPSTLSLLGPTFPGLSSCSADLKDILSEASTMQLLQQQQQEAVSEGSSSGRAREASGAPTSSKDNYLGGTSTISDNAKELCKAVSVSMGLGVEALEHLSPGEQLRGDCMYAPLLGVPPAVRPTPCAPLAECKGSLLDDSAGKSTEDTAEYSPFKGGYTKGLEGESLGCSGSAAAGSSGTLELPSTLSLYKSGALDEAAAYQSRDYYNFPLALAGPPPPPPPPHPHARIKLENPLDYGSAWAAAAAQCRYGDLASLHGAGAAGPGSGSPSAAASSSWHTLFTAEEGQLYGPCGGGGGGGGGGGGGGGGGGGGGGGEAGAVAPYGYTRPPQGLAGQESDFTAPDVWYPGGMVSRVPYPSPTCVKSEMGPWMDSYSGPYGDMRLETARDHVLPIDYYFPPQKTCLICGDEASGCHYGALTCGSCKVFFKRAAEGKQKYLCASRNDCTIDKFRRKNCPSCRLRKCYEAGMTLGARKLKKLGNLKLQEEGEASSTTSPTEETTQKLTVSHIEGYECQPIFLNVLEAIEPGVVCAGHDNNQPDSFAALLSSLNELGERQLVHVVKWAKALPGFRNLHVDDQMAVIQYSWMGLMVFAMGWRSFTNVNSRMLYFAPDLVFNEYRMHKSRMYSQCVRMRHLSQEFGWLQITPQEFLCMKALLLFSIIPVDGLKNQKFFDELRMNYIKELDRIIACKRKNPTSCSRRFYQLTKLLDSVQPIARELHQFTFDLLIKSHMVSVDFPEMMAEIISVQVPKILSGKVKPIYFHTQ
AR / CBP ternary complex, sequence (Q92793 2-2442): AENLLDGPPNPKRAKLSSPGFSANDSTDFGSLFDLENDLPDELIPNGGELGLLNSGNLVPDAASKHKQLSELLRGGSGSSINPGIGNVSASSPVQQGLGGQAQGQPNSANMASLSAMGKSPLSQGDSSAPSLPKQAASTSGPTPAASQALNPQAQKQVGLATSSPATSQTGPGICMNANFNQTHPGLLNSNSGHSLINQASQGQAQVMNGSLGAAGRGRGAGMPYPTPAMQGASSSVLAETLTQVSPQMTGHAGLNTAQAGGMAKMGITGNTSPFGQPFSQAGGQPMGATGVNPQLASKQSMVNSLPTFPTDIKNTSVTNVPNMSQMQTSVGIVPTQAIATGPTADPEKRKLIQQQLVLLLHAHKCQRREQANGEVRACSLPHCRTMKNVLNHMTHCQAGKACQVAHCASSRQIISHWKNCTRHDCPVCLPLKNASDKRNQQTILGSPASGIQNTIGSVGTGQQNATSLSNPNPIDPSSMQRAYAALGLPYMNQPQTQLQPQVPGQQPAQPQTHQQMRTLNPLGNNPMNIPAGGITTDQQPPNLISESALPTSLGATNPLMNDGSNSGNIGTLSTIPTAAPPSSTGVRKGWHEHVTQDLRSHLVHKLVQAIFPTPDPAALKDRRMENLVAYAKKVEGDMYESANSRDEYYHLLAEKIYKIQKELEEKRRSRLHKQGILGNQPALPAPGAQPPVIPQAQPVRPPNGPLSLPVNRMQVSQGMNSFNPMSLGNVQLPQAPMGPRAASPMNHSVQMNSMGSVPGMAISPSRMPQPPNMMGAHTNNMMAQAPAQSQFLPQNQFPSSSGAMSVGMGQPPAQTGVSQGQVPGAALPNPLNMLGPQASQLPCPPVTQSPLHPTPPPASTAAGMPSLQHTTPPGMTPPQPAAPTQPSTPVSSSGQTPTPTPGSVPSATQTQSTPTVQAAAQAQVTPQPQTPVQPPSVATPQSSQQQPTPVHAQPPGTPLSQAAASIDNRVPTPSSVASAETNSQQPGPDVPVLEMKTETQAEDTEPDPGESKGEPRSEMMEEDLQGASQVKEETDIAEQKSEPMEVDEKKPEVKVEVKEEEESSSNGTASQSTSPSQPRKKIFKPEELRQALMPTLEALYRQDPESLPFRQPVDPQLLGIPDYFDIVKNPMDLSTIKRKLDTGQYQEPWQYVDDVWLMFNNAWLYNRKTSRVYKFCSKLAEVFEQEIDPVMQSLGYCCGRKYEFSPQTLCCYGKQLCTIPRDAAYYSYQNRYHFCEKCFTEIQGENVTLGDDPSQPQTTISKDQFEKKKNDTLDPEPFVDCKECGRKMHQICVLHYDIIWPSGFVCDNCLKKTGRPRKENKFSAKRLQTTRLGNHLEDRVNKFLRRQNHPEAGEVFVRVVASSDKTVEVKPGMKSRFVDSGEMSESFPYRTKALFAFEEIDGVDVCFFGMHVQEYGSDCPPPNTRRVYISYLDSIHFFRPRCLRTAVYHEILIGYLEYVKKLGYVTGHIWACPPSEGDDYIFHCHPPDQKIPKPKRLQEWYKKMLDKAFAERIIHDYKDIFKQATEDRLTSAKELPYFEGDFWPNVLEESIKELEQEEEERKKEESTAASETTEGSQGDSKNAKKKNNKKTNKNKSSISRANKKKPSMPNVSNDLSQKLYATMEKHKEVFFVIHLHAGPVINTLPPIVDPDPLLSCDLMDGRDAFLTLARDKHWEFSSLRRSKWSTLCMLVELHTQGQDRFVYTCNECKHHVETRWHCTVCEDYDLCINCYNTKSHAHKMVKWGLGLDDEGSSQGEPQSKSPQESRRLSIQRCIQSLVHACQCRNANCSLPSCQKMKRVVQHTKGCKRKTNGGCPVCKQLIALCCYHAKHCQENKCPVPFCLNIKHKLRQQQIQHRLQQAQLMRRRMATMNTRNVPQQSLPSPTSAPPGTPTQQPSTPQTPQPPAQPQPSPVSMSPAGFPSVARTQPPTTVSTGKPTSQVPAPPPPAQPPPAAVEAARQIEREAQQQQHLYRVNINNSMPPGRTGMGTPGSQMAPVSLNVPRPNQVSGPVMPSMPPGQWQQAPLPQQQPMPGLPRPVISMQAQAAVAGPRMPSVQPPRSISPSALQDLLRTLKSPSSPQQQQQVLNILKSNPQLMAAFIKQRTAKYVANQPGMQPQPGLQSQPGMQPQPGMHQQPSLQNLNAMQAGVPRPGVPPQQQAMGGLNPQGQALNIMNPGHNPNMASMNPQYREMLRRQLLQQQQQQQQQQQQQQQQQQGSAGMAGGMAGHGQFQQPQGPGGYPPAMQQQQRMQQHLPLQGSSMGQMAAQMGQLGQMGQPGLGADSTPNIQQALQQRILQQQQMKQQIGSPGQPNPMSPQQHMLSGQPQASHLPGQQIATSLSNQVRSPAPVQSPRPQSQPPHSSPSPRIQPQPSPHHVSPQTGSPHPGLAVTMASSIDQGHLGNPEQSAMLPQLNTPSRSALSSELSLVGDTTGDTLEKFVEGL
(In general: ELISA stands for enzyme-linked immunosorbent assay.)

For the next assay, the system named is VCaP cells. The experiment in a line: VCaP growth inhibition assay (CTG). It counts as cell-based. The note with it: Homo sapiens, 216 h, 30 pM R1881, 9 days. A digest of the protocol:
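Growth was measured by CTG luminescence after a 9-day exposure of VCaP cells to compound (final 10 fM–100 nM, fivefold steps) in the presence of 30 pM final R1881, in phenol red-free DMEM/5% CSS. IC50 values were derived by nonlinear 4-parameter regression of RLU against concentration.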

Setting [1] is: treated 1.5 hours, rabbit CBP or p300 antibody detection, average, read-out: Average Ternary Complex.

Like-named read-outs stand apart in the source and are kept apart here. A value given as a limit tells only on which side of the number the result lay.

As for `CC(=O)N1CCc2c(c(N3CCCc4cc(-c5cnn(C)c5)c(C(F)F)cc43)nn2[C@@H]2[C@@H]3C[C@H]2CN(CC2CCN(c4ccc(C(=O)N[C@H]5CC[C@H](Oc6ccc(C#N)c(Cl)c6)CC5)nn4)CC2)C3)C1` [Compound 149, N-[4-(3-chloro-4-cyano-phenoxy)cyclohexyl]-6-[4-[[rac-(1S,5R)-6-[5-acetyl-3-[7-(difluoromethyl)-6-(1-methylpyrazol-4-yl)-3,4-dihydro-2H-quinolin-1-yl]-6,7-dihydro-4H-pyrazolo[4,3-c]pyridin-1-yl]-3-azabicyclo[3.1.1]heptan-3-yl]methyl]-1-piperidyl]pyridazine-3-carboxamide], the EC50 on AR / CBP ternary complex (read-out: Average Ternary Complex, treated 1.5 hours, rabbit CBP or p300 antibody detection) was under 1 nM. The molecule further came in with an IC50 with VCaP cells of 0.1 to 1 nM.

Take `CC(=O)N1CCc2c(c(N3CCCc4cc(-c5cnn(C)c5)c(C(F)F)cc43)nn2C2CCC3(CC2)CN(C2CCN(c4ccc(C(=O)N[C@H]5CC[C@H](Oc6ccc(C#N)c(Cl)c6)CC5)nn4)CC2)C3)C1` [Compound 238, 6-[4-[7-[5-acetyl-3-[7-(difluoromethyl)-6-(1-methylpyrazol-4-yl)-3,4-dihydro-2H-quinolin-1-yl]-6,7-dihydro-4H-pyrazolo[4,3-c]pyridin-1-yl]-2-azaspiro[3.5]nonan-2-yl]-1-piperidyl]-N-[4-(3-chloro-4-cyano-phenoxy)cyclohexyl]pyridazine-3-carboxamide]: the EC50 at AR / CBP ternary complex (setting [1]) is under 1 nM. Moreover, the IC50 with VCaP cells was at most 0.1 nM.

Take `CC(=O)N1CCc2c(c(N3CCCc4cc(-c5ccc(CCN6CCN(c7ccc(C(=O)N[C@H]8CC[C@H](Oc9ccc(C#N)c(Cl)c9)CC8)nn7)CC6)cc5)ncc43)nn2C2CCOCC2)C1` [Compound 157, 6-[4-[2-[4-[1-(5-acetyl-1-tetrahydropyran-4-yl-6,7-dihydro-4H-pyrazolo[4,3-c]pyridin-3-yl)-3,4-dihydro-2H-1,7-naphthyridin-6-yl]phenyl]ethyl]piperazin-1-yl]-N-[4-(3-chloro-4-cyano-phenoxy)cyclohexyl]pyridazine-3-carboxamide]: on AR / CBP ternary complex (setting [1]), the EC50 was under 1 nM. The IC50 in the assay on VCaP cells was 0.1 to 1 nM.

As to `CC(=O)N1CCc2c(c(N3CCCc4cc(-c5cnn(C)c5)c(C(F)F)cc43)nn2[C@H]2CC[C@H](N3CCN(c4ccc(C(=O)N[C@H]5CC[C@H](Oc6ccc(C#N)c(Cl)c6)CC5)nn4)CC3)CC2)C1` [Compound 250, 6-[4-[4-[5-acetyl-3-[7-(difluoromethyl)-6-(1-methylpyrazol-4-yl)-3,4-dihydro-2H-quinolin-1-yl]-6,7-dihydro-4H-pyrazolo[4,3-c]pyridin-1-yl]cyclohexyl]piperazin-1-yl]-N-[4-(3-chloro-4-cyano-phenoxy)cyclohexyl]pyridazine-3-carboxamide], on AR / CBP ternary complex (setting [1]), the EC50 is under 1 nM. This molecule returned an IC50 with VCaP cells of at most 0.1 nM.

Consider `CC(=O)N1CCc2c(c(-c3cccc4cc(-c5ccc(CCC6CCN(c7ccc(C(=O)N[C@H]8CC[C@H](Oc9ccc(C#N)c(Cl)c9)CC8)nn7)CC6)cc5)ncc34)nn2C2CCOCC2)C1` [Compound 153, 6-[4-[2-[4-[8-(5-acetyl-1-tetrahydropyran-4-yl-6,7-dihydro-4H-pyrazolo[4,3-c]pyridin-3-yl)-3-isoquinolyl]phenyl]ethyl]-1-piperidyl]-N-[4-(3-chloro-4-cyano-phenoxy)cyclohexyl]pyridazine-3-carboxamide], for which the EC50 at AR / CBP ternary complex (setting [1]) was under 1 nM. Further, the IC50 with VCaP cells is at most 0.1 nM.

In the case of `CC(=O)N1CCc2c(c(-c3cccc4cc(-c5cnn(CC6CCN(c7ccc(C(=O)N[C@H]8CC[C@H](Oc9ccc(C#N)c(Cl)c9)CC8)nn7)CC6)c5)ncc34)nn2C2CCOCC2)C1` [Compound 22, 6-[4-[[4-[8-(5-acetyl-1-tetrahydropyran-4-yl-6,7-dihydro-4H-pyrazolo[4,3-c]pyridin-3-yl)-3-isoquinolyl]pyrazol-1-yl]methyl]-1-piperidyl]-N-[4-(3-chloro-4-cyano-phenoxy)cyclohexyl]pyridazine-3-carboxamide], the EC50 on AR / CBP ternary complex (setting [1]) was under 1 nM. In the assay on VCaP cells, this molecule yielded an IC50 of at most 0.1 nM.

Take `CC(=O)N1CCc2c(c(N3CCCc4cc(C#N)ccc43)nn2C2CCN(C(=O)C3CCN(c4ccc(C(=O)N[C@H]5CC[C@H](Oc6ccc(C#N)c(Cl)c6)CC5)nn4)CC3)CC2)C1` [Compound 61, 6-[4-[4-[5-acetyl-3-(6-cyano-3,4-dihydro-2H-quinolin-1-yl)-6,7-dihydro-4H-pyrazolo[4,3-c]pyridin-1-yl]piperidine-1-carbonyl]-1-piperidyl]-N-[4-(3-chloro-4-cyano-phenoxy)cyclohexyl]pyridazine-3-carboxamide]: the EC50 on AR / CBP ternary complex (setting [1]) is under 1 nM. For the same molecule, the IC50 with VCaP cells is at most 0.1 nM.

Regarding `CC(=O)N1CCc2c(c(-c3cccc4cc(-c5cnn(CCC6CCN(c7ccc(C(=O)N[C@H]8CC[C@H](Oc9ccc(C#N)c(Cl)c9)CC8)nn7)CC6)c5)ncc34)nn2C2COC2)C1` [Compound 84, 6-[4-[2-[4-[8-[5-acetyl-1-(oxetan-3-yl)-6,7-dihydro-4H-pyrazolo[4,3-c]pyridin-3-yl]-3-isoquinolyl]pyrazol-1-yl]ethyl]-1-piperidyl]-N-[4-(3-chloro-4-cyano-phenoxy)cyclohexyl]pyridazine-3-carboxamide], the EC50 at AR / CBP ternary complex (setting [1]) is under 1 nM. Moreover, the IC50 in the assay on VCaP cells lay in the range of 0.1 to 1 nM.

For `CC(=O)N1CCc2c(c(N3CCCc4cc(-c5cnn(C)c5)c(C(F)F)cc43)nn2C2CC3(C2)CC2(CCN(c4ccc(C(=O)N[C@H]5CC[C@H](Oc6ccc(C#N)c(Cl)c6)CC5)nn4)CC2)C3)C1` [Compound 191, 6-[2-[5-acetyl-3-[7-(difluoromethyl)-6-(1-methylpyrazol-4-yl)-3,4-dihydro-2H-quinolin-1-yl]-6,7-dihydro-4H-pyrazolo[4,3-c]pyridin-1-yl]-9-azadispiro[3.1.56.14]dodecan-9-yl]-N-[4-(3-chloro-4-cyano-phenoxy)cyclohexyl] pyridazine-3-carboxamide], the EC50 at AR / CBP ternary complex (setting [1]) was under 1 nM. The molecule also showed an IC50 in the assay with VCaP cells of 0.1 to 1 nM.

For the molecule `CC(=O)N1CCc2c(c(-c3cccc4cc(-c5ccc(COCC6CCN(c7ccc(C(=O)N[C@H]8CC[C@H](Oc9ccc(C#N)c(Cl)c9)CC8)nn7)CC6)nc5)ncc34)nn2C)C1` [Compound 21, 6-[4-[[5-[8-(5-acetyl-1-methyl-6,7-dihydro-4H-pyrazolo[4,3-c]pyridin-3-yl)-3-isoquinolyl]-2-pyridyl]methoxymethyl]-1-piperidyl]-N-[4-(3-chloro-4-cyano-phenoxy)cyclohexyl]pyridazine-3-carboxamide], the EC50 on AR / CBP ternary complex (setting [1]) was under 1 nM. The IC50 with VCaP cells is at most 0.1 nM.

In the case of `CC(=O)N1CCc2c(c(N3CCCc4cc(-c5cnn(C)c5)c(C)cc43)nn2C2CCN(C[C@H]3[C@H](C)CN(c4ccc(C(=O)N[C@H]5CC[C@H](Oc6ccc(C#N)c(Cl)c6)CC5)nn4)C[C@@H]3C)CC2)C1` [Compound 281], the EC50 at AR / CBP ternary complex (setting [1]) was under 1 nM. For the same molecule, in the assay on VCaP cells, the IC50 was at most 0.1 nM.

For the molecule `CC(=O)N1CCc2c(c(N3CCCc4cc(C#N)ccc43)nn2C2CCC3(CC2)CCN(c2ccc(C(=O)N[C@H]4CC[C@H](Oc5ccc(C#N)c(Cl)c5)CC4)nn2)CC3)C1` [Compound 113, 6-[9-[5-acetyl-3-(6-cyano-3,4-dihydro-2H-quinolin-1-yl)-6,7-dihydro-4H-pyrazolo[4,3-c]pyridin-1-yl]-3-azaspiro[5.5]undecan-3-yl]-N-[4-(3-chloro-4-cyano-phenoxy)cyclohexyl]pyridazine-3-carboxamide], the EC50 at AR / CBP ternary complex (setting [1]) was under 1 nM. In addition, in the assay with VCaP cells, the IC50 is 0.1 to 1 nM.

As to `CC(=O)N1CCc2c(c(N3CCCc4cc(-c5cnn(C)c5)ncc43)nn2C2CCN(C(=O)C3CCN(c4ccc(C(=O)N[C@H]5CC[C@H](Oc6ccc(C#N)c(Cl)c6)CC5)nn4)CC3)CC2)C1` [Compound 67, 6-[4-[4-[5-acetyl-3-[6-(1-methylpyrazol-4-yl)-3,4-dihydro-2H-1,7-naphthyridin-1-yl]-6,7-dihydro-4H-pyrazolo[4,3-c]pyridin-1-yl]piperidine-1-carbonyl]-1-piperidyl]-N-[4-(3-chloro-4-cyano-phenoxy)cyclohexyl]pyridazine-3-carboxamide], the EC50 on AR / CBP ternary complex (setting [1]) is under 1 nM. In addition, in the assay on VCaP cells, the IC50 lay within 0.1 to 1 nM.

In the case of `CC(=O)N1CCc2c(c(-c3cccc4cc(-c5ccc(CCOC6CCN(c7ccc(C(=O)N[C@H]8CC[C@H](Oc9ccc(C#N)c(Cl)c9)CC8)nn7)CC6)nc5)ncc34)nn2C2CCOCC2)C1` [Compound 27, 6-[4-[2-[5-[8-(5-acetyl-1-tetrahydropyran-4-yl-6,7-dihydro-4H-pyrazolo[4,3-c]pyridin-3-yl)-3-isoquinolyl]-2-pyridyl]ethoxy]-1-piperidyl]-N-[4-(3-chloro-4-cyano-phenoxy)cyclohexyl]pyridazine-3-carboxamide], the EC50 on AR / CBP ternary complex (setting [1]) was under 1 nM. In the assay with VCaP cells, the IC50 was in the range of 0.1 to 1 nM.

Consider `CC(=O)N1CCc2c(c(N3CCCc4cc(-c5cnn(C)c5)c(C(F)F)cc43)nn2C2CCC3(CC2)CCN(C2CN(c4ccc(C(=O)NC5CCC(Oc6ccc(C#N)c(Cl)c6)CC5)nn4)C2)CC3)C1` (stereo not drawn) [Compound 197, 6-[3-[9-[5-acetyl-3-[7-(difluoromethyl)-6-(1-methylpyrazol-4-yl)-3,4-dihydro-2H-quinolin-1-yl]-6,7-dihydro-4H-pyrazolo[4,3-c]pyridin-1-yl]-3-azaspiro[5.5]undecan-3-yl]azetidin-1-yl]-N-[4-(3-chloro-4-cyanophenoxy)cyclohexyl]pyridazine-3-carboxamide], for which, at AR / CBP ternary complex (setting [1]), the EC50 was under 1 nM. This molecule also returned an IC50 in the assay on VCaP cells of at most 0.1 nM.
